From PMC10447463, “Data-mining unveils structure–property–activity correlation of viral infectivity enhancing self-assembling peptides” (Nature Communications, 2023)
Read-outs that look alike come from different tables or passages of the source.

Experiments:
[1] = Turbidity, derived count rate of scattered light; type: physicochemical; details: for Count Rate / kcps: derived count rate of scattered light at 633 nm, 173°, from zeta-potential measurement, 0.1 mg/mL in 1 mM KCl after 1 d at 1 mg/mL in PBS, turbidity / microscopic aggregation, mean of triplicate
In short: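 One-day room-temperature aggregation at 1 mg/mL in PBS (pH 7.4) preceded measurement; samples then went into 1 mM KCl. Triplicates per sample, two independent experiments averaged.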

[2] = type: physicochemical; details: for ThT Cat. / ThT-Fluorescence (categorical): ThT-active if fluorescence at least twice the control
In short: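 Fibrils (1 mg/mL solution) were mixed with 50 µM ThT in PBS for 15 min at RT, and fluorescence was read at λex 440/λem 488 nm against a PBS blank, as a triplicate mean ± SD. Zeta potential came from electrophoretic mobility (Smoluchowski) after 1 d aggregation at 1 mg/mL in PBS pH 7.4, diluted into 1 mM KCl.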

[3] = Log10 of derived count rate of scattered light (turbidity)
[4] = turbidity, Log10 of derived count rate of scattered light, Figure 3A source data
[5] = turbidity, log10 of derived count rate of scattered light
[6] = ThT fluorescence category, 1 if Rel. ThT >2

Substance	Log10 Count Rate [1, 3]	Count Rate / kcps [1] [kcps]	Log10 Count Rate [1, 4]	Log10 Count Rate [1, 5]	Tht category (> 2 to blank = +) ([2]; Fig S10 panel D)	ThT Cat. ([2]; Fig S10 panel E)	Tht category (> 2 to blank = +) ([2]; FigS12 panel A)	ThT Cat, ([2]; FigS12 panel B)	ThT Cat, ([2]; ThT category, 1 if Rel. ThT >2)	ThT Cat. ([2]; ThT category, 1 if Rel. ThT >2)	ThT Cat. / ThT-Fluorescence (categorical) [2]	Log10 Count Rate ([1]; log10 of derived count rate of scattered light (turbidity))	ThT Cat. [2, 6]	Log10 Count Rate ([1]; logarithm of count rate in kcps)	Rel. ThT ([2]; n-fold ThT fluorescence vs control (PBS, 10% DMSO), 4 µL 1 mg/mL fibrils + 20 µL 50 µM ThT, 15 min RT, ex 440 / em 488 nm, triplicate)
HRRHFRHKITKKK	0.9777	10	0.9777	0.9777	0 (ThT-inactive (N-Fold <2))	0 (ThT-inactive (N-Fold <2))	0 (ThT-inactive (N-Fold <2))	0 (ThT-inactive (N-Fold <2))	0 (ThT-inactive (N-Fold <2))	0 (ThT-inactive (N-Fold <2))	0 (ThT-inactive (N-Fold <2))	–	–	–	–
CKFKFQFNMW	3.613	4107	3.613	–	1 (ThT. Cat is 1, if Rel. ThT >2)	–	–	–	1 (ThT. Cat is 1, if Rel. ThT >2)	–	1 (ThT. Cat is 1, if Rel. ThT >2)	3.613	1 (ThT. Cat is 1, if Rel. ThT >2)	–	–
QCKFKFQFNM	3.565	3670	3.565	3.565	1 (ThT. Cat is 1, if Rel. ThT >2)	1 (ThT. Cat is 1, if Rel. ThT >2)	–	–	1 (ThT. Cat is 1, if Rel. ThT >2)	1 (ThT. Cat is 1, if Rel. ThT >2)	1 (ThT. Cat is 1, if Rel. ThT >2)	–	–	–	–
KAKAQA	1.321	21	1.321	1.321	0 (ThT-inactive (N-Fold <2))	0 (ThT-inactive (N-Fold <2))	0 (ThT-inactive (N-Fold <2))	0 (ThT-inactive (N-Fold <2))	0 (ThT-inactive (N-Fold <2))	–	0 (ThT-inactive (N-Fold <2))	–	0 (ThT-inactive (N-Fold <2))	–	–
KAKAQANMWQ	1.749	56	1.749	1.749	0 (ThT-inactive (N-Fold <2))	0 (ThT-inactive (N-Fold <2))	0 (ThT-inactive (N-Fold <2))	0 (ThT-inactive (N-Fold <2))	0 (ThT-inactive (N-Fold <2))	0 (ThT-inactive (N-Fold <2))	0 (ThT-inactive (N-Fold <2))	–	–	1.7	1
CKIKIQIII	3.695	4953	3.695	3.695	1 (ThT. Cat is 1, if Rel. ThT >2)	–	–	–	1 (ThT. Cat is 1, if Rel. ThT >2)	1 (ThT. Cat is 1, if Rel. ThT >2)	1 (ThT. Cat is 1, if Rel. ThT >2)	–	–	–	–
